{
  "source": "patent US4740499A",
  "about": "“Method of enhancing the bioactivity of atrial peptides” (Monsanto Company, priority 1986, dated 1988)",
  "key": {"[1]": {"test": "Plasma AP-III levels (radioimmunoassay) in rats, first test: constant AP-III infusion, varied thiorphan dose", "type": "in vivo, rat", "settings": "for AP-III Plasma concn. / Increase of plasma AP-III levels over control levels: rat; for AP-III Plasma concn.: AP-III 833 ng/kg/min i.v. infusion; for Increase of plasma AP-III levels over control levels: AP-III 833 ng/kg/min", "protocol": "Plasma levels of atriopeptin III (AP-III) were tested in rats in which the AP-III was infused intravenously both with and without contemporaneous administration of thiorphan.\nMale Sprague-Dawley rats, 240-310 g, were used for all tests. The rats were housed in the test facilities for at least 6 days before they were used.\nCannulas were made of PE-10 (polyethylene) tubing inserted and glued into a piece of PE-50 tubing. Rats were anesthetized with pentobarbital (50 mg/kg i.p.) and had cannulas inserted into the left femoral vein and artery. Both were inserted four cm into the vessels and tied securely. They were then tunnelled under the skin and brought out between the rat's shoulder blades and then cut so that only 1-2 cm was externalized. Cannulas were glued in place using Superglue and filled with saline containing 100 units heparin/ml. Rats were allowed to wake up and then housed individually with food and water ad libitum.\nTwo days after surgery, the rats were weighed and put into restraining cages that allowed limited movement. […] Blood was collected from the femoral artery and replaced with saline containing 10 units heparin/ml. In most tests, 0.3 ml blood was taken, except that when basal AP-III levels were measured 0.4 ml blood was withdrawn. Blood was immediately centrifuged in a microcentrifuge for one minute and plasma was frozen in plastic tubes placed on dry ice. Samples were kept in a -80° C. freezer until they were analyzed.\n(§1) Thiorphan was dissolved in a minimal amount of 0.1 N NaOH to produce the sodium salt. The solution was immediately neutralized using 0.5 N HCl and diluted to a final concentration with 0.9% saline.\nAfter taking the second sample, thiorphan was given as a bolus injection into the femoral artery and the line was flushed with 0.2 ml saline. The doses of thiorphan were 1,3,10 and 30 mg/kg; one set of rats received only a saline bolus as a control. Blood was taken 10,20,30 and 60 minutes after the injection of thiorphan. AP-III was infused during the entire experiment for a total of 90 minutes.\nPlasma AP-III levels were analyzed by radioimmunoassay using a second antibody to separate free and bound AP-III. The label was ^125 I-AP-III that was purified by HPLC after iodination. Conditions were set so that 35-40% of the total counts were precipitated. The incubation medium contained sodium phosphate, pH 7.4, 0.25% bovine serum albumin (BSA), 0.5% sodium azide and 3% PEG-8000 (polyethylene glycol). The primary antibody was from a guinea pig immunized against AP-III. The incubations were done overnight at 6° C. The next day, 2 ml of 0.125% BSA was added to each tube and then they were centrifuged for 45 min at 3000 rpm. They were decanted and the radioactivity was counted in a Micromedic gamma counter. The standard curve contained 10 to 600 pg AP-III/tube. Only the linear portion of the curve was used for quantification. Plasma samples were diluted so that the AP-III concentrations were in the range of the standard curve."}, "[2]": {"test": "HPLC analysis of thiorphan after dissolution in NaOH and neutralisation", "type": "physicochemical", "settings": "dissolved in 0.1 N NaOH, neutralized with 0.5 N HCl, diluted with 0.9% saline", "protocol": "as §1"}},
  "data": [
    {"compound": "O=C(O)CNC(=O)C(CS)Cc1ccccc1", "note": "(racemic) [thiorphan, N-(DL-2-benzyl-3-mercapto-propionyl)glycine]", "values": [
      {"measurement": "AP-III Plasma concn.", "setting": "[1]; thiorphan 1 mg/kg arterial bolus after 30 min sample, 40 min (10 min after thiorphan)", "value": "23.2 ± 3.1", "unit": "ng/mL"},
      {"measurement": "AP-III Plasma concn.", "setting": "[1]; thiorphan 1 mg/kg arterial bolus after 30 min sample, 50 min (20 min after thiorphan)", "value": "22.2 ± 3.9", "unit": "ng/mL"},
      {"measurement": "AP-III Plasma concn.", "setting": "[1]; thiorphan 1 mg/kg arterial bolus after 30 min sample, 60 min (30 min after thiorphan)", "value": "18.7 ± 2.2", "unit": "ng/mL"},
      {"measurement": "AP-III Plasma concn.", "setting": "[1]; thiorphan 1 mg/kg arterial bolus after 30 min sample, 90 min (60 min after thiorphan)", "value": "15.3 ± 3.9", "unit": "ng/mL"},
      {"measurement": "AP-III Plasma concn.", "setting": "[1]; thiorphan 3 mg/kg arterial bolus after 30 min sample, 40 min (10 min after thiorphan)", "value": "26.7 ± 3.5", "unit": "ng/mL"},
      {"measurement": "AP-III Plasma concn.", "setting": "[1]; thiorphan 3 mg/kg arterial bolus after 30 min sample, 50 min (20 min after thiorphan)", "value": "29.5 ± 4.0", "unit": "ng/mL"},
      {"measurement": "AP-III Plasma concn.", "setting": "[1]; thiorphan 3 mg/kg arterial bolus after 30 min sample, 60 min (30 min after thiorphan)", "value": "28.9 ± 5.6", "unit": "ng/mL"},
      {"measurement": "AP-III Plasma concn.", "setting": "[1]; thiorphan 3 mg/kg arterial bolus after 30 min sample, 90 min (60 min after thiorphan)", "value": "21.2 ± 3.9", "unit": "ng/mL"},
      {"measurement": "AP-III Plasma concn.", "setting": "[1]; thiorphan 10 mg/kg arterial bolus after 30 min sample, 40 min (10 min after thiorphan)", "value": "24.7 ± 2.7", "unit": "ng/mL"},
      {"measurement": "AP-III Plasma concn.", "setting": "[1]; thiorphan 10 mg/kg arterial bolus after 30 min sample, 50 min (20 min after thiorphan)", "value": "29.2 ± 3.1", "unit": "ng/mL"},
      {"measurement": "AP-III Plasma concn.", "setting": "[1]; thiorphan 10 mg/kg arterial bolus after 30 min sample, 60 min (30 min after thiorphan)", "value": "30.2 ± 4.8", "unit": "ng/mL"},
      {"measurement": "AP-III Plasma concn.", "setting": "[1]; thiorphan 10 mg/kg arterial bolus after 30 min sample, 90 min (60 min after thiorphan)", "value": "25.5 ± 5.5", "unit": "ng/mL"},
      {"measurement": "AP-III Plasma concn.", "setting": "[1]; thiorphan 30 mg/kg arterial bolus after 30 min sample, 40 min (10 min after thiorphan)", "value": "22.5 ± 2.7", "unit": "ng/mL"},
      {"measurement": "AP-III Plasma concn.", "setting": "[1]; thiorphan 30 mg/kg arterial bolus after 30 min sample, 50 min (20 min after thiorphan)", "value": "28.8 ± 5.6", "unit": "ng/mL"},
      {"measurement": "AP-III Plasma concn.", "setting": "[1]; thiorphan 30 mg/kg arterial bolus after 30 min sample, 60 min (30 min after thiorphan)", "value": "30.7 ± 6.0", "unit": "ng/mL"},
      {"measurement": "AP-III Plasma concn.", "setting": "[1]; thiorphan 30 mg/kg arterial bolus after 30 min sample, 90 min (60 min after thiorphan)", "value": "31.3 ± 7.8", "unit": "ng/mL"},
      {"measurement": "Increase of plasma AP-III levels over control levels", "setting": "[1]; later times after thiorphan", "value": 3, "unit": "fold"},
      {"measurement": "Increase of plasma AP-III levels over control levels", "setting": "[1]; ten minutes after injecting thiorphan", "value": "at least 2 fold"},
      {"measurement": "Increase of AP-III levels upon intravenous infusion", "setting": "[1]; rats, thiorphan 1-30 mg/kg of body weight", "value": "at least two-fold"},
      {"measurement": "Plasma AP-III concentrations vs control, analysis of variance", "setting": "[1]; thiorphan 1 mg/kg, all but the last time point", "value": "statistically different from control levels"},
      {"measurement": "Plasma AP-III concentrations vs control, analysis of variance", "setting": "[1]; thiorphan 3, 10 and 30 mg/kg, all time points after thiorphan", "value": "statistically different from control levels"},
      {"measurement": "Degradation due to method of dissolution (HPLC analysis)", "setting": "[2]", "value": "no apparent degradation"}
    ]}
  ]
}
